Results published in patent US20090220598A1, “Stable Oral Pharmaceutical Composition Containing Thyroid Hormone Receptor Agonists” (priority 2006, published 2009).

Experiments:
[1] = Nitration of compound 1A in the presence of nitrite and/or nitrate at various pH (HPLC-MS/MS); format: physicochemical; settings: 1A 50 μM
Description: (§1) It is known that L-tyrosine can be converted to a nitro reaction product in which the NO2 group is substituted ortho to the ring hydroxyl group. The experimental procedure for determining the extent of nitration of L-tyrosine was used for determining the nitration of compound 1A and the inhibition thereof by selected antioxidants. The experimental procedure for L-tyrosine is known (1998, Chem. Res. Toxicol., 11, 1578). In brief, solutions of compound 1A (50 μM) were exposed to solutions of NaNO3 (2500 μM) and/or NaNO2 (various concentrations) at various pH values, at 37° C. and in the presence or absence of phosphate buffer. The nitration reaction leads to the formation of the 5′-nitro reaction product of compound 1A. This reaction product can be detected and quantified using HPLC, the reaction product having a reduced retention time (under the conditions used) compared to the parent compound. Antioxidant inhibitors were then added to NaNO2— and 1A-containing test solutions and the nitration tests repeated.
Analysis was by HPLC-MS/MS, with the following conditions: […]

[2] = Clinical testing: nitrated reaction product after compound 1A as solution or enteric coated tablets; format: in vivo, human; settings: solution, single dose, clinically relevant dosages
Excerpt: Clinically relevant dosages of compound 1A were given to human subjects in the form of a solution in a single dose.

[3] = In vivo nitration study in rats; settings: given with nitrate and nitrite solution (54 mg and 4 mg per rat)
[4] = Inhibition of nitration of compound 1A in the presence of nitrite by antioxidant inhibitor agents; format: physicochemical; settings: for Nitration (%) of 1A with inhibiting agent: 1A 50 μM, NaNO2 100 μM; for inhibition of the nitrite-mediated nitration of 1A: pH and nitrite concentration that give almost total conversion to the nitro reaction product
Description: as §1
On addition of selected antioxidant inhibiting agents to compound 1A in the presence of nitrite, the results of Table 2 were achieved. The amount of antioxidant used was generally around 10-20 times the amount of compound 1A.

CC(C)c1cc(Oc2c(Br)cc(NC(=O)CC(=O)O)cc2Br)ccc1O [compound 1A, 3-[[3,5-Dibromo-4-[4-hydroxy-3-(1-methylethyl)-phenoxy]-phenyl]-amino]-3-oxopropanoic acid]
Nitration (%) ([1]; NaNO2 100 μM, no NaNO3, pH 2 (HCl), 4 hr): 98.6%
Nitration (%) ([1]; NaNO2 100 μM, no NaNO3, pH 2 (phosphate), 4 hr): 4.27%
Nitration (%) ([1]; NaNO2 100 μM, no NaNO3, pH 6.4, 4 hr): 0.013%
Nitration (%) ([1]; NaNO2 100 μM, no NaNO3, pH 7.2, 4 hr): 0%
Nitration (%) ([1]; NaNO2 100 μM, no inhibiting agent, pH 6.4, 24 hr): 0.02%
Nitration (%) ([1]; NaNO2 400 μM, no inhibiting agent, pH 6.4, 24 hr): 0.12%
Nitration (%) ([1]; NaNO2 800 μM, no inhibiting agent, pH 6.4, 24 hr): 0.21%
Nitration (%) ([1]; NaNO3 2500 μM, NaNO2 100 μM, pH 2 (HCl), 4 hr): 8.4%
Nitration (%) ([1]; NaNO3 2500 μM, NaNO2 100 μM, pH 2 (phosphate), 4 hr): 9.63%
Nitration (%) ([1]; NaNO3 2500 μM, NaNO2 100 μM, pH 6.4, 4 hr): 0.017%
Nitration (%) ([1]; NaNO3 2500 μM, NaNO2 100 μM, pH 7.2, 4 hr): 0%
Nitration (%) ([1]; NaNO3 2500 μM, no NaNO2, pH 2 (HCl), 4 hr): 0%
Nitration (%) ([1]; NaNO3 2500 μM, no NaNO2, pH 2 (phosphate), 4 hr): 0%
Nitration (%) ([1]; NaNO3 2500 μM, no NaNO2, pH 6.4, 4 hr): 0%
Nitration (%) ([1]; NaNO3 2500 μM, no NaNO2, pH 7.2, 4 hr): 0%
Nitration (%) ([1]; no NaNO3, no NaNO2, pH 2 (HCl), 24 hr): 0%
Nitration (%) ([1]; no NaNO3, no NaNO2, pH 2 (phosphate), 24 hr): 0%
Nitration (%) ([1]; no NaNO3, no NaNO2, pH 6.4, 24 hr): 0%
Nitration (%) ([1]; no NaNO3, no NaNO2, pH 7.2, 24 hr): 0%
nitrated reaction product in human subjects [2]: detected in a significant number of the subjects
administered dose nitrated [3]: around 6%

Catechin
Nitration (%) of 1A with inhibiting agent ([4]; pH 2 (HCl), 4 hr): 0.01%
Nitration (%) of 1A with inhibiting agent ([4]; pH 2 (HCl), 24 hr): 0.02%
Nitration (%) of 1A with inhibiting agent ([4]; pH 2 (phosphate), 4 hr): 0.01%
Nitration (%) of 1A with inhibiting agent ([4]; pH 2 (phosphate), 24 hr): 0%
Nitration (%) of 1A with inhibiting agent ([4]; pH 6.4 (NaAc), 4 hr): 0%
Nitration (%) of 1A with inhibiting agent ([4]; pH 6.4 (NaAc), 24 hr): 0%
Nitration (%) of 1A with inhibiting agent ([4]; pH 6.4 (phosphate), 4 hr): 0%
Nitration (%) of 1A with inhibiting agent ([4]; pH 6.4 (phosphate), 24 hr): 0%

O=S([O-])O.[Na+] [Sodium bisulfite]
Nitration (%) of 1A with inhibiting agent ([4]; pH 2 (HCl), 0 hr): 0.77%
Nitration (%) of 1A with inhibiting agent ([4]; pH 2 (HCl), 2 hr): 0.11%
Nitration (%) of 1A with inhibiting agent ([4]; pH 2 (phosphate), 0 hr): 0.11%
Nitration (%) of 1A with inhibiting agent ([4]; pH 2 (phosphate), 2 hr): 0.16%
Nitration (%) of 1A with inhibiting agent ([4]; pH 2 (phosphate), 4 hr): 0.17%
Nitration (%) of 1A with inhibiting agent ([4]; pH 6.4 (NaAc), 2 hr): 0%
Nitration (%) of 1A with inhibiting agent ([4]; pH 6.4 (NaAc), 4 hr): 0%
Nitration (%) of 1A with inhibiting agent ([4]; pH 6.4 (phosphate), 2 hr): 0%
Nitration (%) of 1A with inhibiting agent ([4]; pH 6.4 (phosphate), 4 hr): 0%

Cc1cc(C(C)(C)C)c(O)c(C(C)(C)C)c1 [BHT, butylated hydroxytoluene]
Nitration (%) of 1A with inhibiting agent ([4]; pH 2 (HCl), 24 hr): 0.02%
inhibition of the nitrite-mediated nitration of 1A [4]: essentially complete inhibition

O=C1O[C@H]([C@@H](O)CO)C([O-])=C1O.[Na+] [Sodium ascorbate]
Nitration (%) of 1A with inhibiting agent ([4]; pH 2 (HCl), 4 hr): 0.00%
Nitration (%) of 1A with inhibiting agent ([4]; pH 2 (phosphate), 4 hr): 0.00%
Nitration (%) of 1A with inhibiting agent ([4]; pH 6.4, 4 hr): 0.00%
Nitration (%) of 1A with inhibiting agent ([4]; pH 7.2, 4 hr): 0.00%
inhibition of the nitrite-mediated nitration of 1A [4]: essentially complete inhibition
